Laboratory results: patent US5312816A, “Method of combatting osteoporosis in mammalian subjects, utilizing organic boron compounds” (priority 1993, dated 1994)
Like-named read-outs stand apart in the source and are kept apart here.

Assays:
in vivo = conditions: mouse, Table 1, N=6
Experimental: Amine borane compounds (0 to 100 mg/kg) were administered to CF1 male mice as a single injection with six mice for each dosage. Mice were weighed daily and the number of deaths was recorded each day for a 14 day period. The LD50 value was determined by the procedure of S.C. Gad and C.S. Weil, "Statistics for Toxicologists" in Principles and Methods of Toxicology, A.W. Hayes, Ed., 2nd Edition, P 435-483 Raven Press, New York 1982.

Cathepsin [1] = target: T1, Cathepsin (Rattus norvegicus, UniProt P24268); test: Rat PMNs cathepsin activity; format: cell-based; conditions: pH 5; 5 × 10^-6 M, N=6; read-out: Rat PMNs Cathep.
T1 construct: azocasein assay pH 5.0
Source text: 2. PMNs-polymorphonuclear neutrophils-rat peritoneal cavity 0.5% oyster glycogen.
(§1) 2. Acid Cathepsin D -azocasein-pH 5.0, hydrolytic azo-peptide produce 366 nm.

Cf1 male mice [2] = test: Anti-inflammatory screen, Winter's test, 2% carrageenan hind foot; format: in vivo; conditions: Table XIV; unit inferred; unit assumed
Experimental: Anti-inflammatory Screen- Cf1 - male mice-Winter's Test 2% carrageenan S.C. plantar surface of hind foot, drugs administered @8 or 10 mg/kg I.P. 2X
Winter, C.A., et al, Proc. Soc.

Cf1 male mice [3] = test: Writhing reflex, 0.6% acetic acid; format: in vivo; conditions: Table XIV; unit inferred; unit assumed
Experimental: Writhing reflex- Cf1 -male mice- 0.6% acetic acid I.P. drugs administered @20 mg/kg/ I.P. 20 min. later - the # of stretches/10 min.
Hendershot, L.C., et al, J.

Sprague Dawley male rats [4] = test: Chronic adjuvant arthritis screen, Mycobacterium butyricum; format: in vivo; conditions: Table XIV; unit not given
Sprague Dawley male rats [5] = test: Anti-pleurisy screen, Evans blue + carrageenan; format: in vivo; conditions: Table XIV; unit not given
Acid phosphatase [6] = test: Mouse hepatic lysosomal acid phosphatase activity; format: biochemical; conditions: Table XV; mouse hepatic, 60 min incubation
Source text: (§2) 1. Cf1 male mouse hepatic 10% homogenates in 0.25M sucrose+0.001MEDTA,pH 7.2.
(§3) Lysosomal Enzymes - free and total [triton X-100].
(§4) 1. Acid phosphatase -beta glycerol-3-phosphate, pH 5.0, released IP 720 nm.
Acid phosphatase activity -

Cathepsin D [7] = target: T2, Cathepsin D (Mus musculus, UniProt P18242); test: Mouse hepatic lysosomal cathepsin D activity; format: biochemical
T2 construct: azocasein assay pH 5.0
Source text: as §2, §3, §1
Cathepsin azo casein activity -

Aryl sulphatase [8] = test: Mouse hepatic lysosomal aryl sulphatase activity; format: biochemical; conditions: Table XV, 60 min incubation
Source text: as §2, §3
(§5) 3. Aryl sulphatase- p-nitrocatechol sulfate, pH
(§6) 5. 8 p-nitro-catechol product 510 nm.

Trypsin [9] = test: Mouse hepatic trypsin activity; format: biochemical; conditions: Table XVI; 60 min incubation; read-out: Mouse Hepatic Trypsin IC50
Source text: as §2
(§7) 1. Trypsin- N-benzoyl-L-arginine ethyl ester pH 8.0, hydrolytic product 253 nm.

Cathepsin D [10] = target: T2, Cathepsin D; test: Mouse macrophage cathepsin D activity; format: cell-based; conditions: Table XVII; mouse macrophage, 60 min incubation; read-out: Cathepsin D pH 5.0 IC50
Source text: (§8) 3. Mouse macrophages J774A.1 BALB/c
as §1

Acid phosphatase [11] = test: Mouse macrophage acid phosphatase activity; format: cell-based; conditions: 60 min incubation, read-out: Acid Phosphatase IC50
Aryl sulphatase [12] = test: Mouse macrophage aryl sulphatase activity; format: cell-based; conditions: 60 min incubation, read-out: Aryl Sulphatase IC50
Trypsin [13] = test: Mouse macrophage trypsin (BAEE) activity; format: cell-based; conditions: 60 min incubation, read-out: Trypsin BAEE IC50
Elastase [14] = test: Mouse macrophage elastase activity; format: cell-based; conditions: 60 min incubation, read-out: Elastase IC50
[15] = target: Prostaglandin cyclooxygenase; test: Mouse macrophage prostaglandin cyclooxygenase activity; format: cell-based; conditions: 60 min incubation, read-out: Prostaglandin Cyclooxygenase IC50
Source text: as §8
Prostaglandin synthetase purified beef seminal vesicle ^3 H arachidonic acid (86.2 Ci/mmol), tlc separation.

Cf1 male mice [16] = test: Hot plate tail flick test; format: in vivo; conditions: Table XIV; unit not given
Pg. cyclooxygenase = target: T3, Pg. cyclooxygenase (Sus scrofa, UniProt A0A287ANF9); test: Porcine seminal vesicles Pg. cyclooxygenase; format: biochemical; conditions: Table XVI; 60 min incubation
T3 construct: Porcine Seminal; from tissue; the methods section prints beef seminal vesicle

Commercial Collagenase = test: Commercial collagenase (type not stated); format: biochemical; conditions: Table XVI; 60 min incubation
Source text: 3. Collagenase I, Clostridium histolyticum, bone, skin, tendon, blood vessel, dentine, GI. substrate: rat collagen, N-[propionate-2-3-^3 H] propionylated measured as dpm released.
4. Collagenase II, Clostridium histolyticum, cartilage collagen.

5'-Lipoxygenase = target: T4, 5'-Lipoxygenase (Homo sapiens, UniProt P09917); test: Human leukocyte 5'-lipoxygenase; format: cell-based
T4 construct: human leukocyte tissue culture cells; endogenous in cells; host or cells: Human peripheral leukocytes, RPMI-1788
T4 sequence (P09917 1-674): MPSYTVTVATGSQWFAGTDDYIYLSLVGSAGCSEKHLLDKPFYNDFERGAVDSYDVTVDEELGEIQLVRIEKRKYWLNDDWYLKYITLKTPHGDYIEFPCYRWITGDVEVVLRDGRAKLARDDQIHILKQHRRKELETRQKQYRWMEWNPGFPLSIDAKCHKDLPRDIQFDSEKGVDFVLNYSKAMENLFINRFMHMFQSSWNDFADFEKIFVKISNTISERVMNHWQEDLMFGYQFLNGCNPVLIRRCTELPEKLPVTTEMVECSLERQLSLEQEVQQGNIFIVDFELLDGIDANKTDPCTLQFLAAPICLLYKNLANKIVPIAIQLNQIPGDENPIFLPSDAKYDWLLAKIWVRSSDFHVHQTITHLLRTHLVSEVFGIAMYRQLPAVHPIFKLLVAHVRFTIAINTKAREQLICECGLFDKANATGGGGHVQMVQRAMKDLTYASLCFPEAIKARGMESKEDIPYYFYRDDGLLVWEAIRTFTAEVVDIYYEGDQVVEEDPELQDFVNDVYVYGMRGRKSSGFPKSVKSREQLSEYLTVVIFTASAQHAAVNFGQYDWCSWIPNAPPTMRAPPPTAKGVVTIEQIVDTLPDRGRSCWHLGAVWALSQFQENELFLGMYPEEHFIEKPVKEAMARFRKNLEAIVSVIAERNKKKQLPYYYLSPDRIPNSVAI

Cathepsin [17] = test: Human leukocyte cathepsin; format: cell-based; conditions: Table XIX; read-out: Human Leukocyte IC50 (head gives no enzyme; beside Cathepsin D)
Source text: 5. Human peripheral leukocytes, RPMI-1788
as §1

Sprague Dawley Rats = test: Anti-inflammatory activity in Sprague Dawley rats; format: in vivo; conditions: Table IV; 8 mg/kg I.P.
Trypsin [18] = test: Human osteoporosis fibroblasts trypsin (BAEE) activity; format: cell-based; conditions: Table XI; human osteoporosis fibroblasts, 60 min incubation; read-out: Trypsin BAEE IC50
Source text: as §7

Cathepsin D [19] = target: T5, Cathepsin D (Homo sapiens, UniProt P07339); test: Human osteoporosis fibroblasts cathepsin D (azo-casein) activity; format: cell-based; conditions: Table X; human osteoporosis fibroblasts, DMEM +10% FCS + P/S; read-out: Cathepsin D IC50
T5 construct: azocasein assay pH 5.0
Source text: Osteoporosis Human Fibroblast-CRL-1140, Be SA1

Acid phosphatase [20] = test: Human osteoporosis fibroblasts acid phosphatase activity; format: cell-based; conditions: Table X; human osteoporosis fibroblasts; read-out: Acid Phosphatase IC50
Source text: as §4

Aryl sulphatase [21] = test: Human osteoporosis fibroblasts aryl sulphatase activity; format: cell-based; conditions: Table X; human osteoporosis fibroblasts; read-out: Aryl Sulphatase IC50
Source text: as §5, §6

Elastase [22] = test: Human osteoporosis fibroblasts elastase activity; format: cell-based; conditions: Table XI; human osteoporosis fibroblasts, 60 min incubation; read-out: Elastase IC50
Source text: 2. Elastase- N-succinyl-L-alanyl-L-alanine-p-nitroanilide, pH 8.0, p-nitro anilide 410 nm.

[23] = system: Prostaglandin cyclooxygenase; test: Human osteoporosis fibroblasts prostaglandin cyclooxygenase activity; format: cell-based; conditions: Table XI, 60 min incubation, read-out: Prostaglandin Cyclooxygense IC50
Cf1 male mice [24] = test: Writhing reflex, 0.6% acetic acid; format: in vivo; conditions: Mus musculus, ip; Table IV
[25] = Table XV, mouse hepatic, 60 min incubation, read-out: Cathepsin D IC50
[26] = Table VII, mouse macrophage cultured cells

T2 sequence (P18242 65-410): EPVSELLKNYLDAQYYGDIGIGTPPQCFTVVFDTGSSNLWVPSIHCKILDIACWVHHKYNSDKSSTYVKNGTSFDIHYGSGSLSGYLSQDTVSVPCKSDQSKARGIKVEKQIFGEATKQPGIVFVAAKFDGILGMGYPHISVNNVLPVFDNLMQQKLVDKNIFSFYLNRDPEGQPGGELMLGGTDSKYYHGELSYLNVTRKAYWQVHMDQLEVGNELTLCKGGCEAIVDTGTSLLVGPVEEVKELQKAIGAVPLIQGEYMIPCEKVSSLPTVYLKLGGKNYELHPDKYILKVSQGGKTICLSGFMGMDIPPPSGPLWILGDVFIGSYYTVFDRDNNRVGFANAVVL
T3 sequence (A0A287ANF9 25-600): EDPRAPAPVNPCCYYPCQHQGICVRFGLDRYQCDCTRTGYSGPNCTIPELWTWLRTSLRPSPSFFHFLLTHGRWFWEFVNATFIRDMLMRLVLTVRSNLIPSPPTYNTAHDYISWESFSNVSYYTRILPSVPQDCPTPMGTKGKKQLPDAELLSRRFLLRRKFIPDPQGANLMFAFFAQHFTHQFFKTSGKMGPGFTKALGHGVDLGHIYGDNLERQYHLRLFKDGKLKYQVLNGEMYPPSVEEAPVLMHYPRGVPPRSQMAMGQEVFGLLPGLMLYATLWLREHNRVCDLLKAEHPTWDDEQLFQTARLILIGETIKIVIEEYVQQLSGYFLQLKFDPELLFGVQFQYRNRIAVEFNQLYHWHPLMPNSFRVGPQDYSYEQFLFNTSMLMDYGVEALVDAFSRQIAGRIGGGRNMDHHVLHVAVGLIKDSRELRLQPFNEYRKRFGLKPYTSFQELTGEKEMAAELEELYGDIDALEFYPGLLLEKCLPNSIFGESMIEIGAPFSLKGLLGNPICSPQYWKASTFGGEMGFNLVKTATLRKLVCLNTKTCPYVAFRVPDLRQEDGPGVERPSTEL
T1 sequence (P24268 65-407): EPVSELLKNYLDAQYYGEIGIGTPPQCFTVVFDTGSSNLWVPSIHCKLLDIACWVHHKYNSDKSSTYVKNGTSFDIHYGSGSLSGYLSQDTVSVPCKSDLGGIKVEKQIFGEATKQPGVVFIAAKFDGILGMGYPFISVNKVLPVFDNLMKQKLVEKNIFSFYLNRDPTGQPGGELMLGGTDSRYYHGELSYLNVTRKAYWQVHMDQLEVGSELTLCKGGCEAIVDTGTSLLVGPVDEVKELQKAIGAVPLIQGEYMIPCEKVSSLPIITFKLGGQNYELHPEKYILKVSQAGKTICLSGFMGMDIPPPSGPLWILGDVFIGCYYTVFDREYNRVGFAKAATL
T5 sequence (P07339 65-412): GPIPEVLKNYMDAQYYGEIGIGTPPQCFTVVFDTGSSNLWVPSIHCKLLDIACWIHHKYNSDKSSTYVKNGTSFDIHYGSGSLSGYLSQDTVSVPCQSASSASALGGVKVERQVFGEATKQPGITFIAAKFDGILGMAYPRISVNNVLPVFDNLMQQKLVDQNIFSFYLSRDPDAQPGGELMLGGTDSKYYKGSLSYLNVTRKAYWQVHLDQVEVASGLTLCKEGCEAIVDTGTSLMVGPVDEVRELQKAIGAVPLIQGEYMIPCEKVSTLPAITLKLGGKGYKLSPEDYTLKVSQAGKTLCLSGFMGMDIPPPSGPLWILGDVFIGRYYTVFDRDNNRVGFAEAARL

Compound	Anti-Inflammation Cf1 Mice (Cf1 male mice [2]) [%]	Writhing Reflex Mice (Cf1 male mice [3]) [%]	Anti-Arthritis Rats (Sprague Dawley male rats [4])	Anti-Pleurisy Rats (Sprague Dawley male rats [5])	IC50 (Acid phosphatase [6]) [µM]	IC50 (Cathepsin D [7]; [25]) [µM]	IC50 (Aryl sulphatase [8]) [µM]	IC50 (Trypsin [9]) [µM]	IC50 (Cathepsin D [10]) [µM]	IC50 (Acid phosphatase [11]; Table XVII, mouse macrophage) [µM]	IC50 (Aryl sulphatase [12]; Table XVII, mouse macrophage) [µM]	IC50 (Trypsin [13]; Table XVIII, mouse macrophage) [µM]	IC50 (Elastase [14]; Table XVIII, mouse macrophage) [µM]	IC50 ([15]; Table XVIII, mouse macrophage) [µM]	Tail Flick Mice (Cf1 male mice [16])	IC50 (Pg. cyclooxygenase) [µM]	IC50 (Commercial Collagenase) [µM]	also measured
CCOC(=O)[BH2-][N+](C)(C)C [Compound 6]																		LD50 at 336 h (in vivo): 140 mg/kg; activity at 5 µM (Cathepsin [1]): 16%
CC#N.CO.C[N+](C)(C)[BH2-]C(=O)[O-].C[N+](C)(C)[BH2-]C(=O)[O-].C[N+](C)(C)[BH2-]C(=O)[O-].C[N+](C)(C)[BH2-]C(=O)[O-].C[N+](C)(C)[BH2-]C(=O)[O-].C[N+](C)(C)[BH2-]C(=O)[O-].O.O=[N+]([O-])[O-].[Cr+3].[Cr+3].[Cr+3].[O-2] [Compound 26]	58.5	85.4	78.0	40.0	6.99	5.47	7.73	9.96	2.49	2.48	1.2	2.1	5.09	1.62	184	2.14	567	
CC(C)=O.C[N+](C)(C)[BH2-]C(=O)[O-].O=[N+]([O-])[O-].[Ca+2] [Compound 28]	65	66.4		50.1	7.66	4.58	3.05	9.99	2.38	3.08	2.38	2.38	5.93	1.92	169	2.57	495	
N#C[BH2-][n+]1c(N)ccn([C@H]2C[C@H](O)[C@@H](CO)O2)c1=O [Compound 39, 2'-Deoxycytidine-N3-cyanoborane]																		IC50 (Cathepsin D [7]; Table XIX, read-out: Mouse Hepatic Cathepsin D IC50): 26 µM; IC50 (5'-Lipoxygenase; Table XIX, read-out: Leukocyte 5' lipoxygenase IC50): 12.8 µM; IC50 (Cathepsin [17]): 8.72 µM
BC(=O)O [Compound 13]	41.7		55.2		4	6.19	4.34		4.57	0.82	5.43	2.25	3.07	15.6				Anti-Inflammatory Activity Sprague Dawley Rats (Sprague Dawley Rats): 55 % Control; IC50 (Acid phosphatase [11]; [26]): 0.82 µM; IC50 (Aryl sulphatase [12]; [26]): 5.43 µM; IC50 (Trypsin [13]; Table VIII, mouse macrophages): 2.25 µM; IC50 (Elastase [14]; Table VIII, mouse macrophages): 3.07 µM; IC50 ([15]; Table VIII, mouse macrophages): 6.79 µM; IC50 (Trypsin [18]): 7.51 µM; IC50 (Cathepsin D [19]): 1.19 µM; IC50 (Acid phosphatase [20]): 6.5 µM; IC50 (Aryl sulphatase [21]): 8.19 µM; IC50 (Elastase [22]): 3.01 µM; IC50 [23]: 5.51 µM; response vs control in vivo at 20 mg/kg (Cf1 male mice [24]): 17.4%
C[N+](C)(C)[BH2-]C(=O)[O-].C[N+](C)(C)[BH2-]C(=O)[O-].NCCN.NCCN.[Cl-].[Co+3] [Compound 27]	49.6	66.2	70.0	96.3	4.25	7.8	5.89	9.88	3.83	2.92	1.95	1.38	9.77	2.09	150	4.01	522	
CC(C)[Si](OC[C@H]1O[C@@H](n2cnc3c(=O)[nH]cnc32)C[C@@H]1O[Si](C(C)C)(C(C)C)C(C)C)(C(C)C)C(C)C [Compound 29]																		IC50 (Cathepsin D [7]; read-out: Mouse Hepatic Cathepsin D IC50, Table XIX): 79.6 µM; IC50 (5'-Lipoxygenase): 8.85 µM; IC50 (Cathepsin [17]): 31.8 µM
[BH3-][NH+]1CCOCC1 [Compound 1]																		LD50 at 336 h (in vivo): 475 mg/kg; activity at 5 µM (Cathepsin D [7]; pH 5, read-out: Mouse Liver Cathep.): 107%; activity at 5 µM (Cathepsin [1]): 93%
